Test results taken from patent US20240180921A1, “CDK8/19 INHIBITORS FOR THE TREATMENT OF CYTOKINE STORM” (University of South Carolina, priority 2021, published 2024).

How the values were obtained:
[1] = tested on: mouse cytokines: IL-1β, IL-6, IL-10, MCP-1 and TNF-α; experiment: LPS-induced cytokine expression in plasma of C57BL/6 mice (MSD U-plex custom panel); format: in vivo, C57BL/6 male mice; conditions: 30 mg/kg oral gavage 2 hrs prior to LPS 10 mg/kg i.p.; plasma 2 hrs and 6 hrs after LPS
Procedure: Cytokine storm was induced in C57BL/6 male mice by intraperitoneal (i.p.) injection of LPS (10 mg/kg). Two groups of LPS-treated mice (n=5) received 30 mg/kg 15u dissolved in 30% Propylene Glycol, 70% PEG-400 or vehicle control (5 mice per group), via oral gavage 2 hrs prior to LPS dosing. Blood was collected immediately before LPS dosing, 2 hrs after LPS and 6 hrs after LPS (at which time point the animals were euthanized). Plasma samples (1:100 dilution for 2 hr and 6 hr samples, 1:5 dilution for pre-LPS samples) were used to analyze the cytokines with the MSD U-plex custom panel for the following mouse cytokines: IL-1β, IL-6, IL-10, MCP-1 and TNF-α.

[2] = tested on: panel of 468 kinases; conditions: at 2000 nM, cited from earlier work
[3] = tested on: mouse cytokines associated with cytokine storm (Table 1); experiment: RNA-Seq of spleens of LPS-treated humanized mice, mouse cytokines associated with cytokine storm; format: in vivo, humanized CIEA NOG-EXL mice (mouse transcripts); conditions: 6 hrs after LPS
Text: (§1) To test the effect of CDK8/19 inhibition on LPS-induced cytokine expression in human immune cells, we carried out a study on humanized mice transplanted with human hematopoietic stem cells; such mice contain human blood cells of myeloid and lymphoid lineages as well as mouse blood cells. We have used CIEA NOG-EXL mice (Taconic model #13395) engrafted with human umbilical cord blood-derived CD34+ hematopoietic stem cells 21 weeks before the study. All the mice were female, 25-27 weeks old, and had >45% hCD45+ cells in blood. Eight mice were treated with 1 mg/kg LPS i.p.; this dose was selected based on the finding of (38) that 12.5 μg (˜0.5 mg/kg) produced stronger cytokine induction than 50 μg (˜2 mg/kg) in humanized mice. The first group of LPS-treated mice (n=3) (G1) received vehicle alone by oral gavage 1 hr before LPS, the second group (n=3) received 15u at 30 mg/kg by oral gavage 1 hr before LPS, and the third group (n=2) (G3) received 15u at 30 mg/kg by oral gavage 0.5 hrs after LPS. Blood samples were collected from each mouse one week before LPS dosing. Mice were euthanized 6 hrs after LPS dosing and terminal blood samples were collected for cytokine analysis; in addition, spleens were collected for RNA analysis.
(§2) RNA from spleens of mice of G1-3, euthanized 6 hrs after LPS dosing, was analyzed by RNA-Seq. […]

[4] = tested on: 48 human cytokines; experiment: LPS-induced human cytokines in plasma of humanized mice (Human Cytokine 48-Plex Discovery Assay), Example 3; format: in vivo; conditions: for induction of human proinflammatory cytokines by LPS: 15u 30 mg/kg p.o. or BI-1347 10 mg/kg p.o., LPS 1 mg/kg i.p., plasma 6 hrs after LPS
Procedure: Mice were randomized into 6 groups (n=4-5), Group 1 being untreated control, Group 2 receiving 15u (a.k.a. SNX) (30 mg/kg p.o., administered as in example 2), Group 3 receiving LPS (1 mg/kg i.p.), Group 4 receiving LPS plus 15u administered 1 hr before LPS, Group 5 receiving LPS plus 15u administered 0.5 hr after LPS, and Group 6 receiving LPS plus CDK8/19 inhibitor BI-1347 (28) (10 mg/kg dissolved in 30% Propylene Glycol/70% PEG-400, p.o.) administered 1 hr before LPS. Mice were euthanized 6 hrs after LPS dosing and terminal blood samples were collected for cytokine analysis. As in Example 2, the effects of LPS and 15u on the expression of 48 human cytokines were measured using Human Cytokine 48-Plex Discovery Assay (Eve Technologies) using plasma samples at 1:100 dilution. The results of this analysis are shown in FIG. 5 for those cytokines that were induced by LPS. To assure more accurate assessment of effects of CDK8/19 inhibition on LPS-induced cytokines, 4 LPS-treated animals with low serum level (below 100 pg/mL) of IL-10, the cytokine whose LPS-mediated induction is not decreased by CDK8/19 inhibition, were excluded from the analysis (the low levels of cytokines in such animals are possibly due to insufficient administration of LPS). In this study, fewer cytokines (19 of 48) were induced by LPS than in Example 2, with many cytokines showing apparently higher expression levels in untreated mice possibly reflecting an inflammatory process that could have developed in humanized mice at the late time point (25-26 weeks) after the transplantation of CD34+ hematopoietic stem cells. Nevertheless, as in example 2, the induction of most of the LPS-induced cytokines was decreased by CDK8/19 inhibitor treatment (FIG. 5), including G-CSF, IFN-γ, IL-1 (α and β), IL-6, IL-8, MIG/CXCL9, MCP-1, MIP-1β and TNF (α and β) and IP-10. Among LPS-induced cytokines, only anti-inflammatory IL-10 was induced to a greater degree with than without CDK8/19 inhibitor treatment, an indication of anti-inflammatory activity. […]

[5] = tested on: 48 human cytokines; experiment: LPS-induced human cytokines in plasma of humanized mice (Human Cytokine 48-Plex Discovery Assay), Example 2; format: in vivo; conditions: plasma 6 hrs after LPS
Text: as §1
The effects of LPS and 15u on the expression of 48 human cytokines were measured using Human Cytokine 48-Plex Discovery Assay (Eve Technologies) using plasma samples at 1:100 dilution. […] The results of this analysis are shown in FIG. 2 for 33 of 48 cytokines that were induced by LPS>2-fold (cytokine plots are shown in the order of fold induction by LPS). […] These included 14 mediators of cytokine storm listed in Table 1: GM-CSF, IFN-γ, IL-1 (α and β), IL-6, IL-8, IL-12 (p40 and p70), IL-18, MIG/CXCL9, MIP-1 (α and β) and TNF (α and β).

[6] = tested on: human cytokines associated with cytokine storm (Table 1); experiment: RNA-Seq of spleens of LPS-treated humanized mice, human cytokines associated with cytokine storm; format: in vivo, humanized CIEA NOG-EXL mice (human transcripts); conditions: 6 hrs after LPS
Text: as §1, §2

[7] = tested on: 32 mouse cytokines; experiment: LPS-induced mouse cytokines in plasma of humanized mice (Mouse Cytokine 32-Plex Discovery Assay), Example 2; format: in vivo, humanized CIEA NOG-EXL mice; conditions: 30 mg/kg p.o. 1 hr before LPS; plasma 6 hrs after LPS
Text: as §1
We have also used the same plasma samples (at 1:100 dilution) to measure the expression of 32 mouse cytokines using Mouse Cytokine 32-Plex Discovery Assay (Eve Technologies).

Row | Structure (SMILES) | effect on LPS-induced expression of the assayed cytokines (IL-1β, IL-6, IL-10, MCP-1, TNF-α) [1] | S(35) S-score ([2]; S(#)=(number of non-mutant kinases with % Ctrl<#)/(number tested)) | S(10) S-score [2] | number of mouse cytokines with decreased RNA in spleen ([3]; 15u-treated G2 or G3 relative to G1) | number of mouse cytokines (including TNF and IL-10) with elevated RNA in spleen ([3]; G2 and especially G3 relative to G1) | suppression of proinflammatory cytokine induction, 15u administered 0.5 hours after LPS compared with 1 hour before LPS ([4]; 30 mg/kg p.o., in most cases) | induction of human proinflammatory cytokines by LPS [4] | number of the most strongly LPS-induced human cytokines whose induction was suppressed ([5]; 30 mg/kg oral gavage 1 hr before LPS 1 mg/kg i.p.) | LPS-induced human IP-10 ([5]; 30 mg/kg p.o. 1 hr before LPS) | LPS-induced human MCP-1 ([5]; 30 mg/kg p.o. 1 hr before LPS) | LPS-induced human anti-inflammatory IL-10 ([5]; 30 mg/kg p.o. 1 hr before LPS) | over-induction of human IL-10 ([5]; 30 mg/kg p.o. 1 hr before LPS) | induction of 14 mediators of cytokine storm: GM-CSF, IFN-γ, IL-1 (α and β), IL-6, IL-8, IL-12 (p40 and p70), IL-18, MIG/CXCL9, MIP-1 (α and β), TNF (α and β) ([5]; human cytokines, 30 mg/kg p.o. 1 hr before LPS) | number of human cytokines with decreased RNA amounts in spleen ([6]; 15u 30 mg/kg p.o. administered after LPS (G3) vs LPS alone (G1)) | number of human cytokines with decreased RNA amounts in spleen ([6]; 15u 30 mg/kg p.o. administered before LPS (G2) vs LPS alone (G1)) | LPS-induced mouse IL-7 [7] | LPS-induced mouse IL-10 [7] | effect on LPS-induced mouse cytokines (27 of 32 induced) [7]
1 | CN(C)C(=O)c1ccc(N2CCCN(c3ccnc4sc(C(N)=O)c(N)c34)CC2)cc1 [15u, 3-amino-4-(4-(4 (dimethylcarbamoyl)phenyl)-1,4-diazepan-1-yl)thieno[2,3-b]pyridine-2-carboxamide] | no significant effect | less than 0.02 | < 0.004 | 3 of 27 | 7 | stronger | suppressed | 24 of 27 | not inhibited | not inhibited | only borderline inhibition | not over-induced | suppressed | 15 of 26 | 18 of 26 | weakly inhibited | over-induced | most of them were unaffected
2 | CN(C)C(=O)Cn1cc(-c2ccc(-c3cncc4ccccc34)cc2)cn1 [BI-1347, 2-(4-(4-(isoquinolin-4-yl)phenyl)-1H-pyrazol-1-yl)-N,N-dimethylacetamide, reference compound] |  |  |  |  |  |  | broadly suppressed |  |  |  |  |  |  |  |  |  |  | 
